Source: article PMC10674233, “Design, Synthesis, In Vitro, and In Silico Studies of New N^5-Substituted-pyrazolo[3,4-d]pyrimidinone Derivatives as Anticancer CDK2 Inhibitors” (Pharmaceuticals, 2023)

Assays:
HCT116 cells = assay: MTT antiproliferative assay, HCT116 cells; assay type: cell-based; conditions: Homo sapiens, HCT-116, HCT116 CRC cell line, triplicate, read-out: IC50 ± SD HCT116
HepG2 cells = assay: MTT antiproliferative assay, HepG2 cells; assay type: cell-based; conditions: Homo sapiens, HepG2 HCC cell line, triplicate, read-out: IC50 ± SD HepG2
[1] = tested on: normal human fibroblast cell line (WI-38); assay: MTT cytotoxicity assay, normal human fibroblast cell line WI-38; assay type: cell-based; conditions: WI-38 normal human fibroblasts, read-out: IC50 ± SD WI-38
CDK2/CyclinA2 = target: T1, CDK2/CyclinA2 (Homo sapiens, UniProt P24941); assay: In vitro enzymatic CDK2 inhibition assay (Kinase-Glo luminescence kit); assay type: biochemical; conditions: triplicate; read-out: CDK2 Inhibition IC50 ± SD
T1 construct: purchased BPS Bioscience Inc. (San Diego, CA, USA)
Procedure: . […]. In vitro evaluation of CDK2 inhibition was determined using a commercially available assay kit from BPS Bioscience Inc. (San Diego, CA, USA) as described in the Supplementary Information. […]
serum. After that, the reconstituted MTT was added in an amount equal to 10% of the culture medium volume. Cultures were returned to incubator for 2-4 hours depending on cell type and maximum cell density. Incubation times should be consistent when making comparisons. After the incubation period, cultures were removed from incubator and the resulting formazan crystals were dissolved by adding an amount of MTT Solubilization Soluti on [M-8910] equal to the original culture medium volume. Occasionally, especially in dense cultures, pipetting up and down [trituration] may be required to completely dissolve the MTT formazan crystals.
Absorbance was measured spectrophotometrically at a wavelength of 570 nm. The background absorbance of multiwell plates was measured at 690 nm and subtract from the 570 nm […]
2.2. CDK2/Cyclin A2 inhibitory activity
Promega Kinase-Glo Plus luminescence kinase assay protocol was adopted as reported. […]
reaction by adding 20 μl of diluted CDK2/CyclinA2 enzyme to the wells designated “Positive Control” and "Test Inhibitor Control". […] Measure luminescence using the microplate reader. “Blank” value is subtracted from all readings. […]

Compound | IC50 (HCT116 cells) | IC50 (HepG2 cells) | IC50 [1] | IC50 (CDK2/CyclinA2) | melting point
COC(=O)Cn1c(C)nc2c(cnn2-c2ccccc2)c1=O [Compound 2a] | 19.4 ± 0.86 µM | 32.9 ± 1.67 µM | – | – | –
CCOC(=O)Cn1c(C)nc2c(cnn2-c2ccccc2)c1=O [Compound 2b] | 10.9 ± 0.48 µM | 58 ± 2.94 µM | – | – | –
Cc1nc2c(cnn2-c2ccccc2)c(=O)n1CC(=O)c1ccc(Cl)cc1 [Compound 3a] | 35.9 ± 1.59 µM | 26.2 ± 1.33 µM | – | – | –
Cc1ccc(C(=O)Cn2c(C)nc3c(cnn3-c3ccccc3)c2=O)cc1 [Compound 3b] | 10.8 ± 0.48 µM | 1.9 ± 0.1 µM | – | – | –
Cc1nc2c(cnn2-c2ccccc2)c(=O)n1CC(=O)Nc1ccc(F)cc1 [Compound 4a] | 1.09 ± 0.05 µM | 0.58 ± 0.03 µM | 58.6 µM | 0.21 ± 0.01 µM | –
Cc1nc2c(cnn2-c2ccccc2)c(=O)n1CC(=O)Nc1ccc(Cl)cc1 [Compound 4b] | 3.38 ± 0.15 µM | 2.57 ± 0.13 µM | 48.5 µM | 0.96 ± 0.05 µM | –
COc1cccc(NC(=O)Cn2c(C)nc3c(cnn3-c3ccccc3)c2=O)c1 [Compound 4c] | 26.4 ± 1.17 µM | 87.3 ± 4.42 µM | – | – | 220 to 225 °C
Cc1nc2c(cnn2-c2ccccc2)c(=O)n1CC(=O)Nc1cccc2ccccc12 [Compound 4e] | 41.2 ± 1.83 µM | 16.1 ± 0.81 µM | – | – | –
